Results published in patent US9216991B2 (Ares Trading S.A., priority 2012, dated 2015).
Counter-ions that a name gives are not always drawn.

Target: T1, IRAK4 (Homo sapiens, UniProt Q9NWZ3)
T1 construct: His (N); TEV cleavage site (N)
T1 sequence (Q9NWZ3 1-460): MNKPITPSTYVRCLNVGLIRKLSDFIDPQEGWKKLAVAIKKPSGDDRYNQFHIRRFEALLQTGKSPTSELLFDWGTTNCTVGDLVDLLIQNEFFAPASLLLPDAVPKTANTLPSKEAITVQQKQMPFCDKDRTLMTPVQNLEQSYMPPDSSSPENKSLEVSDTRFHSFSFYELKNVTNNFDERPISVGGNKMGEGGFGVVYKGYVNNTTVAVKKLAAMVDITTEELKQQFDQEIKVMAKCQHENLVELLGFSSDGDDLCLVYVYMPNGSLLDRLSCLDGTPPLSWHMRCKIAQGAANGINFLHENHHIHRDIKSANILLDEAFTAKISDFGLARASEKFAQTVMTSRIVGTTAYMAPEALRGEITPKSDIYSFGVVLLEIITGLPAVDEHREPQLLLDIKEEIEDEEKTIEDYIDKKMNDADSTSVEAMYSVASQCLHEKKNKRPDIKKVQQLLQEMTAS
Assay: IRAK4 Enzymatic Assay
Type: biochemical
Conditions: His-TEV-IRAK4 20 ng/well, ATP 2 μM, STK1-biotin peptide 300 nM, 3 hours at 30° C., FlashPlate radioactivity
Procedure: IRAK4 is a human purified recombinant enzyme (His-TEV-IRAK1 (194-712)
IRAK4 hydrolyses ATP, autophosphorylates and phosphorylates a Serine/Threonine generic peptidic substrate (STK: 61ST1BLC from CisBio International based in Bagnols/Cèze FR).
Measurement of IRAK-4 inhibition is performed in streptavidin coated 384 well FlashPlate (PerkinElmer #SMP410A). His-TEV-IRAK4 (20 ng/well), ATP (2 μM, [^33P]ATP 0.25 μCi/well), STK1-biotin peptide (300 nM) and compounds in DMSO (range of concentrations from 20 μM to 1nM) or controls (2% DMSO) are incubated for 3 hours at 30° C. in assay buffer: Hepes pH7.0 50 mM, Fatty acid-free BSA 0.1%, Dithiothreitol DTT 2 mM, MgCl2 10 mM, EGTA 0.5 mM, Tween-20 0.01%, MnCl2 5 mM.
Kinase reaction is stopped by addition of EDTA. Supernatant is discarded, plates are washed three times with 150 mM NaCl and radioactivity is then measured in a Microbeta Trilux reader.

| Structure (SMILES) | IC50 |
| --- | --- |
| Cn1cc(-c2cccc(-c3ncc(-c4cnn(CCC5CCOC5=O)c4)cn3)c2)cn1 (centres unmarked) [Example 132, 3-[2-(4-{2-[3-(1-Methyl-1H-pyrazol-4-yl)-phenyl]-pyrimidin-5-yl}-pyrazol-1-yl)-ethyl]dihydro-furan-2-one] | 100 to 1000 nM |
| Cn1cc(-c2cccc(-c3ncc(-c4cnn([C@H]5CC[C@H](OCC6CC6)CC5)c4)cn3)c2)cn1 [Example 220, trans-5-[1-(4-Cyclopropylmethoxy-cyclohexyl)-1H-pyrazol-4-yl]-2-[3-(1-methyl-1H-pyrazol-4-yl)-phenyl]-pyrimidine] | < 100 nM |
| CC(C)N(C)C(=O)[C@H]1CC[C@H](n2cc(-c3cnc(-c4cccc(-c5cnn(C)c5)c4)nc3)cn2)CC1 [Example 200, Trans-4-(4-{2-[3-(1-Methyl-1H-pyrazol-4-yl)-phenyl]-pyrimidin-5-yl}-pyrazol-1-yl)-cyclohexanecarboxylic acid isopropyl-methyl-amide] | < 100 nM |
| c1cc(-c2cnoc2)cc(-c2ncc(-c3cnn(C4CCNCC4)c3)cn2)c1 [Example 13, 2-(3-Isoxazol-4-yl-phenyl)-5-(1-piperidin-4-yl-1H-pyrazol-4-yl)-pyrimidine hydrochloride] | 100 to 1000 nM |
| CN1[C@@H]2CCC[C@H]1C[C@H](n1cc(-c3cnc(-c4cccc(-c5cnn(C)c5)c4)nc3)cn1)C2 [Example 142, Exo-9-Methyl-3-(4-{2-[3-(1-methyl-1H-pyrazol-4-yl)-phenyl]-pyrimidin-5-yl}-pyrazol-1-yl)-9-aza-bicyclo[3.3.1]nonane] | 100 to 1000 nM |
| Cn1cc(-c2cccc(-c3ncc(-c4cnn(CCC(=O)N5CCOCC5)c4)cn3)c2)cn1 [Example 83, 3-(4-{2-[3-(1-Methyl-1H-pyrazol-4-yl)-phenyl]-pyrimidin-5-yl}-pyrazol-1-yl)-1-morpholin-4-yl-propan-1-one] | 1000 to 5000 nM |
| Cn1cc(-c2cccc(-c3ncc(-c4cnn(CC(O)c5ccccn5)c4)cn3)c2)cn1 (centres unmarked) [Example 215, 2-(4-{2-[3-(1-Methyl-1H-pyrazol-4-yl)-phenyl]-pyrimidin-5-yl}-pyrazol-1-yl)-1-pyridin-2-yl-ethanol] | 100 to 1000 nM |
| CN1C[C@H]2CC1CN2C(=O)Cn1cc(-c2cnc(-c3cccc(-c4cnn(C)c4)c3)nc2)cn1 (stereo in doubt) [Example 148, 1-((1R,4R)-5-Methyl-2,5-diaza-bicyclo[2.2.1]hept-2-yl)-2-(4-{2-[3-(1-methyl-1H-pyrazol-4-yl)-phenyl]-pyrimidin-5-yl}-pyrazol-1-yl)-ethanone] | 1000 to 5000 nM |
| Cn1cc(-c2cccc(-c3ncc(-c4cnn(C5CCN(C(=O)C6CCCCO6)CC5)c4)cn3)c2)cn1 (centres unmarked) [Example 108, [4-(4-{2-[3-(1-Methyl-1H-pyrazol-4-yl)-phenyl]-pyrimidin-5-yl}-pyrazol-1-yl)-piperidin-1-yl]-(tetrahydro-pyran-2-yl)-methanone] | 100 to 1000 nM |
| Cn1cc(-c2cccc(-c3ncc(-c4cnn(C5CCCNCC5)c4)cn3)c2)cn1 (centres unmarked) [Example 172, 4-(4-{2-[3-(1-Methyl-1H-pyrazol-4-yl)-phenyl]-pyrimidin-5-yl}-pyrazol-1-yl)-azepane] | < 100 nM |
| CC1CN(C(=O)Cn2cc(-c3cnc(-c4cccc(-c5cnn(C)c5)c4)nc3)cn2)CCO1 (centres unmarked) [Example 80, 1-(2-Methyl-morpholin-4-yl)-2-(4-{2-[3-(1-methyl-1H-pyrazol-4-yl)-phenyl]-pyrimidin-5-yl}-pyrazol-1-yl)-ethanone] | 100 to 1000 nM |
| Cn1cc(-c2cccc(-c3ncc(-c4cnn(C5CCC(C(=O)N6CCO[C@@H](CO)C6)CC5)c4)cn3)c2)cn1 (stereo partly drawn) [Example 266, ((R)-2-Hydroxymethyl-morpholin-4-yl)-[4-((S)-4-{2-[3-(1-methyl-1H-pyrazol-4-yl)-phenyl]-pyrimidin-5-yl}-pyrazol-1-yl)-cyclohexyl]-methanone] | < 100 nM |
| Cn1cc(-c2cccc(-c3ncc(-c4cnn(C5CCC(=O)CC5)c4)cn3)c2)cn1 [Example 189, 4-(4-{2-[3-(1-Methyl-1H-pyrazol-4-yl)-phenyl]-pyrimidin-5-yl}-pyrazol-1-yl)-cyclohexanone] | 100 to 1000 nM |
| Cn1cc(-c2cccc(-c3ncc(-c4cnn([C@H]5CC[C@@H](N)CC5)c4)cn3)c2)cn1 [Example 156, 4-(4-{2-[3-(1-Methyl-1H-pyrazol-4-yl)-phenyl]-pyrimidin-5-yl}-pyrazol-1-yl)-cyclohexylamine] | 100 to 1000 nM |
| c1cncc(-c2cccc(-c3ncc(-c4cnn(C5CCNCC5)c4)cn3)c2)c1 [Example 2, 5-(1-(piperidin-4-yl)-1H-pyrazol-4-yl)-2-(3-(pyridin-3-yl)phenyl)pyrimidine hydrochloride] | 100 to 1000 nM |
| Cn1cc(-c2cccc(-c3ncc(-c4cnn(C5CCNCC5)c4)cn3)c2)nn1 [Example 72, 2-[3-(1-Methyl-1H-[1,2,3]triazol-4-yl)-phenyl]-5-(1-piperidin-4-yl-1H-pyrazol-4-yl)-pyrimidine hydrochloride] | 1000 to 5000 nM |
| CN(C)C(=O)[C@H]1CC[C@H](n2cc(-c3cnc(-c4cccc(-c5cnn(C)c5)c4)nc3)cn2)CC1 [Example 134, Trans-4-(4-{2-[3-(1-Methyl-1H-pyrazol-4-yl)-phenyl]-pyrimidin-5-yl}-pyrazol-1-yl)-cyclohexanecarboxylic acid dimethylamide] | < 100 nM |
| Cn1cc(-c2cccc(-c3ncc(-c4cnn(CC(=O)O)c4)cn3)c2)cn1 [Example 8] | 1000 to 5000 nM |
| Cn1cc(-c2cccc(-c3ncc(-c4cnn(C5CCCC(=O)C5)c4)cn3)c2)cn1 (centres unmarked) [Example 195, 3-(4-{2-[3-(1-Methyl-1H-pyrazol-4-yl)-phenyl]-pyrimidin-5-yl}-pyrazol-1-yl)-cyclohexanone] | 100 to 1000 nM |
| c1ccc(Cn2cc(-c3cccc(-c4ncc(-c5cnn(C6CCNCC6)c5)cn4)c3)cn2)cc1 [Example 21, 2-[3-(1-Benzyl-1H-pyrazol-4-yl)-phenyl]-5-(1-piperidin-4-yl-1H-pyrazol-4-yl)-pyrimidine hydrochloride] | 100 to 1000 nM |
| CC(=O)N1CCCC(n2cc(-c3cnc(-c4cccc(-c5cnn(C)c5)c4)nc3)cn2)CC1 (centres unmarked) [Example 223, 1-[4-(4-{2-[3-(1-Methyl-1H-pyrazol-4-yl)-phenyl]-pyrimidin-5-yl}-pyrazol-1-yl)-azepan-1-yl]-ethanone] | 100 to 1000 nM |
| CC(C)[C@H](N)C(=O)N1CCC(n2cc(-c3cnc(-c4cccc(-c5cnn(C)c5)c4)nc3)cn2)CC1 [Example 124, (S)-2-Amino-3-methyl-1-[4-(4-{2-[3-(1-methyl-1H-pyrazol-4-yl)-phenyl]-pyrimidin-5-yl}-pyrazol-1-yl)-piperidin-1-yl]-butan-1-one] | 100 to 1000 nM |
| COCCNC(=O)[C@H]1CC[C@H](n2cc(-c3cnc(-c4cccc(-c5cnn(C)c5)c4)nc3)cn2)CC1 [Example 159, Trans-4-(4-{2-[3-(1-Methyl-1H-pyrazol-4-yl)-phenyl]-pyrimidin-5-yl}-pyrazol-1-yl)-cyclohexanecarboxylic acid (2-methoxy-ethyl)-amide] | < 100 nM |
| CN(C)C(=O)[C@H]1CC[C@H](n2cc(-c3cnc(-c4cccc(-c5ccnnc5)c4)nc3)cn2)CC1 [Example 233, Trans-4-{4-[2-(3-Pyridazin-4-yl-phenyl)-pyrimidin-5-yl]-pyrazol-1-yl}-cyclohexanecarboxylic acid dimethylamide] | 100 to 1000 nM |
| CC(C)CNC(=O)[C@H]1CC[C@H](n2cc(-c3cnc(-c4cccc(-c5cnn(C)c5)c4)nc3)cn2)CC1 [Example 173, Trans-4-(4-{2-[3-(1-Methyl-1H-pyrazol-4-yl)-phenyl]-pyrimidin-5-yl}-pyrazol-1-yl)-cyclohexanecarboxylic acid isobutyl-amide] | < 100 nM |
| COCCn1cc(-c2cnc(-c3cccc(-c4cnn(C)c4)c3)nc2)cn1 [Example 98, 5-[1-(2-Methoxy-ethyl)-1H-pyrazol-4-yl]-2-[3-(1-methyl-1H-pyrazol-4-yl)-phenyl]-pyrimidine] | 100 to 1000 nM |
| Nc1cc(-c2cccc(-c3ncc(-c4cnn(C5CCOCC5)c4)cn3)c2)ccn1 [Example 136, 4-(3-{5-[1-(Tetrahydro-pyran-4-yl)-1H-pyrazol-4-yl]-pyrimidin-2-yl}-phenyl)-pyridin-2-ylamine] | 100 to 1000 nM |
| CN(C)C(=O)C1CCC(n2cc(-c3cnc(-c4cccc(-c5cnn(C)c5)c4)nc3)cn2)CC1 (mixture of isomers) [Example 121, 4-(4-{2-[3-(1-Methyl-1H-pyrazol-4-yl)-phenyl]-pyrimidin-5-yl}-pyrazol-1-yl)-cyclohexanecarboxylic acid dimethylamide] | < 100 nM |
| CCC(O)CNC(=O)[C@H]1CC[C@H](n2cc(-c3cnc(-c4cccc(-c5cnn(C)c5)c4)nc3)cn2)CC1 (stereo partly drawn) [Example 203, trans-4-(4-{2-[3-(1-Methyl-1H-pyrazol-4-yl)-phenyl]-pyrimidin-5-yl}-pyrazol-1-yl)-cyclohexanecarboxylic acid (2-hydroxy-butyl)-amide] | < 100 nM |
